Experiments:
Experiment in all cases: relative viability (nuclei count vs DMSO), 5 days (fraction); higher = more cells survive
RO-3306 + OSI-027 = compound: C1=CC2=C(C=CC(=C2)C=C3C(=O)NC(=NCC4=CC=CS4)S3)N=C1 [RO-3306] + COc1cccc2cc(-c3nc([C@H]4CC[C@H](C(=O)O)CC4)n4ncnc(N)c34)[nH]c12 [OSI-027] (partner 0.5 µM)
Method in brief: (§1)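 Medians of duplicate plates are given as relative viability. That measure is the nuclei count in treated wells divided by the count in vehicle wells. Counts were taken on 4× images of lung cancer cell lines in 1536-well plates, 5 days after pin-tool dosing the day after seeding with one drug alone or a fixed anchor-drug dose plus five library-drug doses (not always all listed) in √10 steps.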

RO-3306 + Luminespib = compound: C1=CC2=C(C=CC(=C2)C=C3C(=O)NC(=NCC4=CC=CS4)S3)N=C1 [RO-3306] + CCNC(=O)c1noc(-c2cc(C(C)C)c(O)cc2O)c1-c1ccc(CN2CCOCC2)cc1 [Luminespib] (partner 0.01 µM)
Method in brief: as §1

[1] = compound: O=S(=O)(c1ccccc1)N(CC(F)(F)F)c1ccc(C(O)(C(F)(F)F)C(F)(F)F)cc1 + CC(=O)c1c(C)c2cnc(Nc3ccc(N4CCNCC4)cn3)nc2n(C2CCCC2)c1=O [Palbociclib] (partner 0.5 µM)
Method in brief: as §1

RO-3306 + Lapatinib = compound: C1=CC2=C(C=CC(=C2)C=C3C(=O)NC(=NCC4=CC=CS4)S3)N=C1 [RO-3306] + CS(=O)(=O)CCNCc1ccc(-c2ccc3ncnc(Nc4ccc(OCc5cccc(F)c5)c(Cl)c4)c3c2)o1 [Lapatinib] (partner 2 µM)
Method in brief: as §1

Cell Line	relative viability (RO-3306 + OSI-027; first compound 0.01 µM)	relative viability (RO-3306 + OSI-027; first compound 0.03162 µM)	relative viability (RO-3306 + OSI-027; first compound 0.1 µM)	relative viability (RO-3306 + OSI-027; first compound 0.3162 µM)	relative viability (RO-3306 + OSI-027; first compound 1 µM)	relative viability (RO-3306 + Luminespib; first compound 0.01 µM)	relative viability (RO-3306 + Luminespib; first compound 0.03162 µM)	relative viability (RO-3306 + Luminespib; first compound 0.1 µM)	relative viability (RO-3306 + Luminespib; first compound 0.3162 µM)	relative viability (RO-3306 + Luminespib; first compound 1 µM)	relative viability ([1]; first compound 0.8 µM)	relative viability ([1]; first compound 2.53 µM)	relative viability ([1]; first compound 8 µM)	relative viability (RO-3306 + Lapatinib; first compound 0.01 µM)	relative viability (RO-3306 + Lapatinib; first compound 0.03162 µM)	relative viability (RO-3306 + Lapatinib; first compound 0.1 µM)	relative viability (RO-3306 + Lapatinib; first compound 0.3162 µM)	relative viability (RO-3306 + Lapatinib; first compound 1 µM)
NCI-H441	0.555	0.506	0.541	0.617	0.534	0.248	0.317	0.279	0.313	0.315	0.212	0.16	0.211					
NCI-H2347	0.449	0.404	0.421	0.249	0.356	1.03	0.43	0.825	0.253	0.575	0.42	0.374	0.395	0.914	0.932	0.969	0.897	0.91
NCI-H2009	0.656	0.56	0.624	0.622	0.615	1.1	0.979	1.07	0.992	0.976	0.174	0.238	0.223	0.805	0.887	0.867	1.07	0.872
NCI-H1915	0.698	0.594	0.613	0.637	0.396	0.975	0.493	0.879	0.805	0.749	0.46	0.577	0.525	1.07	0.973	0.969	0.945	0.446
EMC-BAC-2	0.306	0.36	0.358	0.352	0.315	1.25	0.983	1.23	1.16	1.15	0.525	0.473	0.5	0.943	0.722	0.916	0.892	0.871
Calu-6														1.27	1.12	0.981	1.18	1.06
NCI-H2126	0.627	0.597	0.707	0.708	0.727	0.867	0.858	0.895	1	0.949	0.344	0.345	0.355	0.644	0.719	0.742	0.76	0.747
NCI-H596	0.788	0.72	0.7	0.729	0.579	1.06	0.853	1.13	0.84	0.974				0.892	0.83	1.08	1.07	1.17
SW 900	0.486	0.427	0.467	0.551	0.266	0.148	0.181	0.172	0.175	0.183	0.409	0.421	0.5					
NCI-H1650	0.715	0.409	0.516	0.637	0.587	0.183	0.217	0.2	0.227	0.224	0.308	0.276	0.367	0.595	0.632	0.695	1.03	0.683
EKVX	0.757	0.646	0.661	0.955	0.684	1.02	0.689	0.841	0.959	0.905	0.401	0.341	0.324	0.173	0.187	0.237	0.192	0.148
NCI-H2342	0.664	0.559	0.616	0.575	0.596	0.742	0.627	0.727	0.759	0.73	0.592	0.545	0.502					
NCI-H1975	0.959	0.614	0.655	0.788	0.613	0.443	0.142	0.242	0.175	0.294	0.71	0.567	0.644	1.05	0.559	0.787	0.919	0.752
HCC-78	0.324	0.401	0.384	0.404	0.329						0.522	0.445	0.475	0.733	0.704	0.732	0.728	0.583
LXF-289	0.801	0.778	0.681	0.739	0.63	0.766	0.654	0.593	0.603	0.577	0.574	0.502	0.534	0.918	0.919	0.947	0.893	0.787
HCC-366	1.13	1.06	0.847	0.955	0.654						0.649	0.379	0.239	1.1	0.939	0.91	1.09	0.759
NCI-H1648	0.247		0.289	0.249	0.241						0.258	0.274	0.29					
NCI-H522	0.68	0.695	0.622	0.711	0.715	1.04	1.12	1.13	1.14	1.22	1.01	1.14	0.913					
EBC-1														0.206	0.264	0.211	0.193	0.218
NCI-H1623	0.408	0.384	0.45	0.368	0.405	0.574	0.451	0.617	0.471	0.5								
A549														1.16	0.953	0.955	1.05	0.971
NCI-H1703														1.25	0.858	1.03	0.831	1.6
IA-LM														0.816		0.665	0.698	0.388
NCI-H1563	0.671	0.733	0.736	0.735	0.725	0.516	0.519	0.6	0.533	0.507				1.03	0.911	0.862	0.979	0.922

Reference: the supplement of paper PMC10307832
